According to patent publication US11589603B2, “Powdered nutritional product containing branched-chain amino acids and a sugar alcohol” (Abbott Laboratories, priority 2015, dated 2023):
Values joined by “and” are separate entries in the source; they are usually repeats but may differ in a detail not shown here. Equal values may be shown once.

How the values were obtained:
[1] = Example 4: aqueous dissolution of branched-chain amino acids in a powdered nutritional product with varying myo-inositol, LC/UV of filtrate; format: physicochemical; conditions: powdered nutritional product; particularly evident at 30 seconds across all concentrations
Procedure: (§1) The LC/UV system used to perform the tests comprised the following: 1) Column: YMC ODS-AQ, 4.6 x 250 mm, 5 μm, Waters P/N AQ12S052546WT; 2) Mobile Phase: Milli-Q Plus water; 3) Flow Rate: 0.4 mL/minute; 4) Temperature: 40° C.; 5) Detection: UV at 192 nm; 6) Injection: 2 μL of filtrate; and 7) Run Time: 20 minutes.
Example 4 evaluates the effect that myo-inositol concentration has on the aqueous dissolution of branched-chain amino acids (valine, isoleucine, and leucine) in a powdered nutritional product. One serving (17.6 grams) of the powdered nutritional product contains 7.00 grams of a branched-chain amino acid blend comprising 50 wt. % leucine, 25 wt. % isoleucine, and 25 wt. % valine. A serving of the powdered nutritional product with a specified amount of myo-inositol was added to 16 fluid ounces of Milli-Q Plus water at 21° C. and stirred at 400 rpm. At each specified time point, an aliquot was obtained and filtered through a 0.45 μm PTFE membrane (Pall Life Sciences, Acrodisc CR 25, P/N 4501), and the filtrate was tested for valine, isoleucine, and leucine using the LC/UV method as described in Example 3.

[2] = Example 5: effect of inositol isomers on dissolution of L-leucine, LC/UV of filtrate; format: physicochemical; conditions: 3.50 g L-leucine with 0.1 g/16 oz. inositol isomer, water 21° C., 400 rpm
Procedure: as §1, with “[…];” for “P/N AQ12S052546WT;”

effect of addition of myo-inositol on rate of dissolution of the branched-chain amino acids [1]: enhanced the rate of dissolution
Leu dissolved at 30 seconds (g/16 oz.) ([2]; 30 seconds): 0.465 g/16 oz. and 0.495 g/16 oz.
Leu dissolved at 60 seconds (g/16 oz.) ([2]; 60 seconds): 0.838 g/16 oz. and 0.781 g/16 oz.
SMILES: O[C@H]1[C@H](O)[C@@H](O)[C@H](O)[C@@H](O)[C@H]1O [myo-inositol]
Leu dissolved at 60 seconds (% of total Leu) ([2]; 60 seconds): 23.9 % of total Leu and 22.3 % of total Leu
